Results from patent US5688818A, “Succinamic acid compound, production method thereof and use thereof” (Senju Pharmaceutical Co., Ltd., priority 1993, dated 1997).

Legend:
aldose reductase = target: T1, aldose reductase (Sus scrofa, UniProt P80276); experiment: Aldose reductase activity-inhibitory action; format: biochemical; conditions: pH 6.2, 25° C., 2 minutes, 3 mM dl-glyceraldehyde substrate, 0.1 mM NADPH, swine lens enzyme
T1 construct: swine lenses freeze-stored at -80° C. were homogenized with distilled water; from tissue; host or cells: swine lens (40% ammonium sulfate supernatant, dialyzed)
Experimental: 1) Aldose reductase activity-inhibitory action
That is, swine lenses freeze-stored at -80° C. were homogenized with distilled water and centrifuged at 10,000 G for 15 minutes. The supernatant was prepared into a 40% ammonium sulfate solution and subjected to centrifugation at 10,000 G for 10 minutes.
The activity of aldose reductase was determined by the above-mentioned method of S. Hayman et al. That is, the above-mentioned enzyme solution (25 μl) and a drug solution (25 μl) dissolved in 1% DMSO at various concentrations were added to a 40 mM phosphate buffer (200 μl, pH 6.2) containing, at final concentrations, 0.4M lithium sulfate, 0. 1 mM NADPH (reduced type nicotinamide adenine dinucleotide phosphate) and 3 mM dl-glyceraldehyde as a substrate.
The test drug number indicates the example number to be mentioned later.

[1] = system: sorbitol content in the tissues (erythrocytes, sciatic nerve, lens); experiment: Inhibitory action on sorbitol accumulation in tissues of rats with experimental diabetes; format: in vivo, Sprague-Dawley rats; conditions: relative to control group = 100%; for Sorbitol accumulation (%) nerve: sciatic nerve
Experimental: 2) Inhibitory action on sorbitol accumulation in tissues of rats with experimental diabetes
Test Compounds: Compounds of Example 23 and 29 and EPALRESTAT (described in Japanese Patent Unexamined Publication No. 40478/1982)
Sprague-Dawley rats (male, 6 weeks old, 5-6 per group) were fasted for 18 hours and injected with streptozotocin (SIGMA, 60 mg/kg) via the tail vein under ether anesthesia to prepare rats with diabetes.
The test compounds were orally administered at 4, 8 and 24 hours after the injection of streptozotocin. EPALRESTAT was administered orally in the dose of 30 mg/kg and the compounds of Examples 23 and 29 were administered orally in the dose of 10 mg/kg as a 0. 5% carboxymethylcellulose suspension, respectively. During the administrations, the rats were raised under free access to feed and water and the sorbitol content in the tissues (erythrocytes, sciatic nerve, lens) was determined 3 hours after the final administration, according to the enzyme method of H. Y. Bergmeyer et al. [Methods of Enzymatic Analysis, vol. 3, 1323-1330 (1974)] with the use of SDH (sorbitol dehydrogenase) and NAD (β-nicotinamide adenine dinucleotide). The results are expressed in percent (%) relative to the value of a control group administered with a 0.5% carboxymethylcellutose solution (solvent) instead of the compound, which was taken as 100%.

Normal ICR mice = conditions: mouse, in vivo
Experimental: The acute toxicity (safety) of the single dose of the compound of the present invention was confirmed by the following test.
Normal ICR mice (male, 7 weeks old, 5 per group) were fasted for 18 hours and the compound (300 mg/kg) of Example 29 was orally administered as a 0.5% carboxymethylcellulose suspension. To the control group, a 0.5% carboxymethylcellulose solution alone was orally administered and observation was continued for 14 days thereafter, during which period the mice were allowed to take feed and water freely.

[2] = 10 mg/kg orally at 4, 8 and 24 hours after streptozotocin, * p < 0.01 Tukey
[3] = 30 mg/kg orally at 4, 8 and 24 hours after streptozotocin

| IC50 (aldose reductase) [µM] | SMILES | Sorbitol accumulation (%) erythrocytes [1, 2] [%] | Sorbitol accumulation (%) lens [1, 2] [%] | Sorbitol accumulation (%) nerve [1, 2] [%] | death case among the mice (Normal ICR mice) | Sorbitol accumulation (%) erythrocytes [1, 3] [%] | Sorbitol accumulation (%) lens [1, 3] [%] | Sorbitol accumulation (%) nerve [1, 3] [%] |
| --- | --- | --- | --- | --- | --- | --- | --- | --- |
| 0.013 | CN(Cc1nc2c(F)c(F)cc(F)c2s1)C(=O)CCC(=O)O [Example 23, N-(4,5,7-Trifluorobenzothiazol-2-yl)methyl-N-methylsuccinamic acid] | 6.3 | 69.5 | 4.2 |  |  |  |  |
| 0.021 | CC(/C=C1\SC(=S)N(CC(=O)O)C1=O)=C\c1ccccc1 [EPALRESTAT, reference compound] |  |  |  |  | 66.5 | 89.1 | 99.9 |
| 0.018 | CCCCN(Cc1nc2c(F)c(F)cc(F)c2s1)C(=O)CCC(=O)O [Example 26, N-(4,5,7-Trifluorobenzothiazol-2-yl)methyl-N-butylsuccinamic acid] |  |  |  |  |  |  |  |

| SMILES | IC50 (aldose reductase) [µM] | Sorbitol accumulation (%) erythrocytes [1, 2] [%] | Sorbitol accumulation (%) lens [1, 2] [%] | Sorbitol accumulation (%) nerve [1, 2] [%] | death case among the mice (Normal ICR mice) | Sorbitol accumulation (%) erythrocytes [1, 3] [%] | Sorbitol accumulation (%) lens [1, 3] [%] | Sorbitol accumulation (%) nerve [1, 3] [%] |
| --- | --- | --- | --- | --- | --- | --- | --- | --- |
| O=C(O)CCC(=O)N(Cc1nc2c(F)c(F)cc(F)c2s1)C1CC1 [Example 29] | 0.017 | 12.2 | 45.4 | 1.0 | no death case |  |  |  |
